Results reported in publication PMC10587159, “Biosynthesis and engineering of the nonribosomal peptides with a C-terminal putrescine” (Nature Communications, 2023).
“Also recorded” adds a separate entry of the source. Residues, ends and D or L forms follow the SMILES beside them. *: point of attachment. Octanoyl = CCCCCCCC(=O)*; NH(CH2)4NH2 = NCCCCN*

Columns and labels:
tumor lines = experiment: MTT cytotoxicity assay, statements on the whole panel; type: cell-based, human
Summary of the method: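 Cytotoxicity against the listed human lines (Kasumi leukemia, HepG-2 hepatoma, SGC-7901 gastric, normal lung epithelial 2B) measured by MTT assay following a previously described protocol. Cell identity checked regularly by morphology and gene/protein expression.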

RAW 264.7 cells = experiment: NO production in LPS-induced RAW264.7 cells (Griess method), anti-inflammatory; type: cell-based; conditions: compounds 0-80 μM for 30 min, then co-treatment with LPS 24 h; Griess reagents, OD 540 nm
From the text: The two human acute lymphoblastic leukemia cells K562 and Kasumi, two human breast adenocarcinoma cells MCF7 and MDA-MB-231, human hepatoma cell HepG-2, human lung adenocarcinoma cell A549, human gastric cancer cell SGC-7901, human colon cancer cell HCT-116, human ovarian cancer cell line SKOV3, or human lung epithelial normal cell 2B were obtained from Beyotime Biotechnology and utilized to test the cytotoxicity of compounds by MTT assays as previous study. The anti-inflammatory effect of the compounds was detected by the influence on the increase in the level of nitric oxide caused by lipopolysaccharide (LPS) based on the classic Griess method. RAW 264.7 cells (Shanghai Institutes for Biological Science) were seeded in 96-well plates and incubated for 24 h. Then, cells were treated with compounds 29, 29a, 31, and 31a (0-80 μM) for 30 min, followed by co-treatment with LPS ([…]) for another 24 h. The Nitric Oxide assay kit with Griess reagents (Beyotime, Lot: S0021, Shanghai, China) was used to examine cellular supernatant nitrite accumulation, which represents cellular NO levels. The OD value of 540 nm absorbance was detected with a microplate reader. […]
We measured NO production to test the anti-inflammatory activity of compounds […]
cellular NO levels. The OD value of 540 nm absorbance was detected with a microplate […]

[1] = tested on: human breast adenocarcinoma cells MDA-MB-231; experiment: cells; type: cell-based; conditions: 24 h
Summary of the method: (§1)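 An MTT-based assay, run as in prior work, gives compound cytotoxicity here. The tested lines undergo routine authentication through morphology and gene/protein expression checks.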

[2] = tested on: human ovarian cancer cell line SKOV3; experiment: cells; type: cell-based; conditions: 24 h
Summary of the method: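 Cells were exposed to compounds and viability was then quantified by MTT assay, per an earlier published method. Panel included leukemia Kasumi, hepatoma HepG-2, gastric SGC-7901 and normal lung epithelial 2B cells.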

[3] = tested on: human hepatoma cell HepG-2; experiment: cells; type: cell-based; conditions: 24 h
Summary of the method: (§2)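 MTT read-out of viability; cancer lines plus normal 2B epithelial cells. Lines authenticated by morphology, gene/protein expression.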

[4] = tested on: human lung epithelial normal cell 2B; experiment: cells; type: cell-based; conditions: 24 h
Summary of the method: as §2

[5] = tested on: human lung adenocarcinoma cell A549; experiment: MTT cytotoxicity assay, A549; type: cell-based; conditions: 24 h
Summary of the method: as §1

SMILES: CCCCCCCC(=O)N[C@H](C(=O)N[C@@H](Cc1ccccc1)C(=O)N[C@@H](CCC(=O)O)C(=O)N[C@H](C(=O)N[C@@H](C)C(=O)NCCCCN)[C@@H](C)CC)C(C)C [Compound 31] (Octanoyl-VFEIA-{NH(CH2)4NH2}; N-terminus assumed)
- IC50 (tumor lines; 24 h): > 40 µM
- cytotoxic / antitumor activity in words (tumor lines; MTT assay, panel of tumor cell lines): higher anti-inflammatory and antitumor activities than 29a and 31a
- anti-inflammatory activity (NO production in LPS-induced RAW264.7 cells) in words (RAW 264.7 cells): higher anti-inflammatory and antitumor activities than 29a and 31a; also recorded: moderate; also recorded: suppressed moderately the release
- IC50 [1]: 168.9 ± 1.05 µM
- IC50 [2]: 241.4 ± 0.07 µM
- IC50 [3]: 136.2 ± 0.15 µM
- IC50 [4]: 42.6 ± 1.25 µM
- IC50 [5]: 198.3 ± 1.25 µM
